Measurements as given in PubChem BioAssay AID330 (DTP/NCI, 2004).
Values joined by “and” are separate entries in the source; they are usually repeats but may differ in a detail not shown here. Equal entries are not always repeated. Toxic doses and inconclusive results are not listed. The calls were made as follows: active = survival T/C of 150% or more; inactive = T/C below 125% in these data. Square brackets hold non-standard residues; d marks the D form. Peptide text beside a SMILES is read from it. Ac5c = NC1(C(=O)O)CCCC1; Sar = CNCC(=O)O

Tested on: P388 leukemia ip, CD2F1 mice, survival T/C
Assay: NCI In Vivo Anticancer Drug Screen. Data for tumor model P388 Leukemia (intraperitoneal) in CD2F1 (CDF1) mice
Details: endpoint: median survival time, higher = longer survival
Summary of the method: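 Mice carrying the transplanted tumor received test compound or vehicle. Survival was recorded in each group, and the value is the treated-group measurement divided by that of the vehicle-treated control group.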

[1] = dose: 50.0 mg/kg/injection, schedule: Q01DX009 (ip), vehicle: saline
[2] = dose: 100.0 mg/kg/injection, schedule: Q01DX009 (ip), vehicle: saline
[3] = dose: 200.0 mg/kg/injection, schedule: Q01DX009 (ip), vehicle: saline

Measured: T/C

COc1cccc2c1C(=O)c1c(O)c3c(c(O)c1C2=O)C[C@@](O)(C(C)=O)C[C@@H]3OC1CC(N2CCSCC2)C(O)C(C)O1 (stereo partly specified)
active: dose: 50.0 mg/kg/injection, schedule: Q04DX003 (ip), vehicle: water 169 % of control
inactive: dose: 0.39 mg/kg/injection, schedule: Q04DX003 (ip), vehicle: distilled water + Tween-80 118 % of control | dose: 0.78 mg/kg/injection, schedule: Q04DX003 (ip), vehicle: distilled water + Tween-80 100 % of control | dose: 1.56 mg/kg/injection, schedule: Q04DX003 (ip), vehicle: distilled water + Tween-80 103 % of control | dose: 3.12 mg/kg/injection, schedule: Q04DX003 (ip), vehicle: distilled water + Tween-80 113 % of control | dose: 6.25 mg/kg/injection, schedule: Q04DX003 (ip), vehicle: distilled water + Tween-80 106 % of control | dose: 6.25 mg/kg/injection, schedule: Q04DX003 (ip), vehicle: water 105 % of control | dose: 12.5 mg/kg/injection, schedule: Q04DX003 (ip), vehicle: distilled water + Tween-80 123 % of control | dose: 12.5 mg/kg/injection, schedule: Q04DX003 (ip), vehicle: water 113 % of control | dose: 25.0 mg/kg/injection, schedule: Q04DX003 (ip), vehicle: distilled water + Tween-80 124 % of control | dose: 25.0 mg/kg/injection, schedule: Q04DX003 (ip), vehicle: water 123 % of control

COc1cc(C(=O)Nc2ccc(S(=O)(=O)Nc3nc(C)cc(C)n3)cc2)cc(OC)c1OC
inactive: dose: 50.0 mg/kg/injection, schedule: Q01DX005 (ip), vehicle: saline with Tween-80 98 % of control | dose: 100.0 mg/kg/injection, schedule: Q01DX005 (ip), vehicle: saline with Tween-80 88 % of control | dose: 200.0 mg/kg/injection, schedule: Q01DX005 (ip), vehicle: saline with Tween-80 103 % of control

CNCC(=O)NC1(C(=O)O)CCCC1 (H-[Sar]-[Ac5c]-OH)
inactive: [1] 100 % of control | [2] 94 % of control | [3] 109 % of control

O=C(O)N1CCc2c(sc3ccccc23)C1
inactive: dose: 12.5 mg/kg/injection, schedule: Q01DX001 (ip), vehicle: Klucel (hydroxypropylcellulose) (HPC) 103 % of control | dose: 25.0 mg/kg/injection, schedule: Q01DX001 (ip), vehicle: Klucel (hydroxypropylcellulose) (HPC) 98 % of control | dose: 50.0 mg/kg/injection, schedule: Q01DX001 (ip), vehicle: Klucel (hydroxypropylcellulose) (HPC) 100 % of control and 104 % of control

COC(=O)N1CCC(N)(C#N)CC1
inactive: dose: 12.5 mg/kg/injection, schedule: Q04DX003 (ip), vehicle: Klucel (hydroxypropylcellulose) (HPC) 100 % of control | dose: 25.0 mg/kg/injection, schedule: Q04DX003 (ip), vehicle: Klucel (hydroxypropylcellulose) (HPC) 93 % of control

O=S1(=O)CS(=O)(=O)OCCCCCO1
active: dose: 6.25 mg/kg/injection, schedule: Q01DX005 (ip), vehicle: Klucel (hydroxypropylcellulose) (HPC) 161 % of control | dose: 12.5 mg/kg/injection, schedule: Q01DX005 (ip), vehicle: Klucel (hydroxypropylcellulose) (HPC) 211 % of control and 213 % of control | dose: 25.0 mg/kg/injection, schedule: Q01DX005 (ip), vehicle: Klucel (hydroxypropylcellulose) (HPC) 255 % of control and 288 % of control | dose: 50.0 mg/kg/injection, schedule: Q01DX005 (ip), vehicle: Klucel (hydroxypropylcellulose) (HPC) 165 % of control and 288 % of control

COc1ccc(-c2c(C(=O)O)oc3cc(O)ccc3c2=O)cc1OC
inactive: dose: 60.0 mg/kg/injection, schedule: Q01DX005 (ip), vehicle: saline with Tween-80 99 % of control | dose: 120.0 mg/kg/injection, schedule: Q01DX005 (ip), vehicle: saline with Tween-80 97 % of control | dose: 240.0 mg/kg/injection, schedule: Q01DX005 (ip), vehicle: saline with Tween-80 96 % of control

CC(=O)Nc1ccc(C(=O)C(C)Cl)cc1 (stereo unspecified)
inactive: dose: 50.0 mg/kg/injection, schedule: Q01DX009 (ip), vehicle: Klucel (hydroxypropylcellulose) (HPC) 100 % of control and 104 % of control and 105 % of control | dose: 100.0 mg/kg/injection, schedule: Q01DX009 (ip), vehicle: Klucel (hydroxypropylcellulose) (HPC) 105 % of control and 117 % of control and 89 % of control | dose: 200.0 mg/kg/injection, schedule: Q01DX009 (ip), vehicle: Klucel (hydroxypropylcellulose) (HPC) 99 % of control and 117 % of control and 123 % of control | dose: 400.0 mg/kg/injection, schedule: Q01DX009 (ip), vehicle: Klucel (hydroxypropylcellulose) (HPC) 105 % of control

COc1cccc2c1C(=O)c1c(O)c3c(c(O)c1C2=O)CC(O)(c1csc(N2CCN(C)CC2)n1)CC3O (stereo unspecified)
inactive: dose: 1.56 mg/kg/injection, schedule: Q01DX009 (ip), vehicle: water 87 % of control | dose: 3.13 mg/kg/injection, schedule: Q01DX009 (ip), vehicle: water 93 % of control | dose: 6.25 mg/kg/injection, schedule: Q01DX009 (ip), vehicle: water 110 % of control | dose: 12.5 mg/kg/injection, schedule: Q01DX009 (ip), vehicle: water 110 % of control | dose: 25.0 mg/kg/injection, schedule: Q01DX009 (ip), vehicle: water 105 % of control and 116 % of control | dose: 50.0 mg/kg/injection, schedule: Q01DX009 (ip), vehicle: water 102 % of control | dose: 100.0 mg/kg/injection, schedule: Q01DX009 (ip), vehicle: water 107 % of control

CN(c1ccccc1)c1cc(=O)nc2ccccn12
inactive: dose: 60.0 mg/kg/injection, schedule: Q01DX005 (ip), vehicle: saline 105 % of control | dose: 120.0 mg/kg/injection, schedule: Q01DX005 (ip), vehicle: saline 98 % of control | dose: 240.0 mg/kg/injection, schedule: Q01DX005 (ip), vehicle: saline 105 % of control

CC(=O)Nc1ccc2c(c1)Cc1cccc(NC(C)=O)c1-2
inactive: [1] 105 % of control | [2] 110 % of control | [3] 115 % of control
